≈ marks a conversion by molar mass, not a printed value.
What was measured:
PI3Kγ = PI3Kγ (Homo sapiens, UniProt P48736); assay: PI3K (human) HTRF assay, PI3Kγ; type: biochemical; settings: ATP 10 μM, mean ± SEM
[1] = Plasma pharmacokinetics of SN32976 and stable major metabolites in mice (30 mg/kg oral); settings: mouse plasma, 30 mg/kg SN32976 oral gavage
mTOR = mTOR (Homo sapiens, UniProt P42345); assay: SelectScreen Z'LYTE kinase assay (Invitrogen), mTOR; type: biochemical; settings: determined by Invitrogen, mean ± SEM, n=2
[2] = Metabolite identification in dog liver microsomes; type: in vitro ADME; settings: 10 μM SN32976, 60 min
Description: (§1) The reaction was quenched by mixing samples with acetonitrile and internal standard. […] Observation of parent compound and metabolites was achieved using electrospray ionization while performing a mass scan from 300-750 m/z. For observed peaks, the m/z was determined and product ion scans were carried out.

[3] = Metabolite identification in monkey liver microsomes; type: in vitro ADME, Cynomolgus monkey; settings: 10 μM SN32976, 60 min
Description: as §1

[4] = Metabolite identification in mouse liver microsomes; type: in vitro ADME; settings: 10 μM SN32976, 60 min
Description: as §1

[5] = Metabolite identification in rat liver microsomes; type: in vitro ADME; settings: 10 μM SN32976, 60 min
Description: as §1

[6] = Metabolite identification in human liver microsomes; type: in vitro ADME; settings: 10 μM SN32976, 60 min
Description: as §1

PI3Kα [7] = molecular target: PI3Kα (Homo sapiens, UniProt P42336); assay: PI3K (human) HTRF assay, PI3Kα; type: biochemical
[8] = Tumor and plasma concentrations of SN32976 and major metabolites in mice with U-87 MG tumors after multiple doses; settings: multiple doses of 100 mg/kg SN32976
PI3Kβ = PI3Kβ (Homo sapiens, UniProt P42338); assay: PI3K (human) HTRF assay, PI3Kβ; type: biochemical; settings: ATP 10 μM, mean ± SEM
PI3Kδ = PI3Kδ (Homo sapiens, UniProt O00329); assay: PI3K (human) HTRF assay, PI3Kδ; type: biochemical; settings: ATP 10 μM, mean ± SEM
CYP2B6 = assay: Cytochrome P450 induction in cultured hepatocytes (mRNA, qRT-PCR), CYP2B6; type: in vitro ADME; settings: at 10 μM, hepatocytes 72 h, mean ± SD
CYP1A2 [9] = assay: Cytochrome P450 induction in cultured hepatocytes (mRNA, qRT-PCR), CYP1A2; type: in vitro ADME; settings: at 10 μM, hepatocytes 72 h, mean ± SD
PIK3C2B = molecular target: T1, PIK3C2B (Homo sapiens, UniProt O00750); assay: KINOMEscan, PIK3C2B; type: binding; settings: 10 μM
T1 construct: purchased Ambit Biosciences (scanMAXX KINOMEscan)

CYP1A2 [10] = molecular target: T2, CYP1A2 (Homo sapiens, UniProt P05177); assay: Cytochrome P450 inhibition in human liver microsomes, CYP1A2; type: in vitro ADME; settings: read-out: CYP inhibition 1A2 IC50
T2 construct: was evaluated in human liver microsomes incubated with SN32976; tissue Cyprotex (contract research organization); host or cells: human liver microsomes

[11] = Solubility in potassium phosphate buffer; type: physicochemical; settings: aqueous buffer, thermodynamic from solid
CYP2C19 = molecular target: T3, CYP2C19 (Homo sapiens, UniProt P33261); assay: Cytochrome P450 inhibition in human liver microsomes, CYP2C19; type: in vitro ADME; settings: read-out: CYP inhibition 2C19 IC50
T3 construct: was evaluated in human liver microsomes incubated with SN32976; tissue Cyprotex (contract research organization); host or cells: human liver microsomes

[12] = Plasma pharmacokinetics in dogs; settings: male, Beagle, dog, po, 10 mg/kg
[13] = Plasma pharmacokinetics in mice; settings: male, CD1, mouse, po, 20 mg/kg
CYP2D6 = molecular target: T4, CYP2D6 (Homo sapiens, UniProt P10635); assay: Cytochrome P450 inhibition in human liver microsomes, CYP2D6; type: in vitro ADME; settings: read-out: CYP inhibition 2D6 IC50
T4 construct: was evaluated in human liver microsomes incubated with SN32976; tissue Cyprotex (contract research organization); host or cells: human liver microsomes

CYP3A4 [14] = assay: Cytochrome P450 induction in cultured hepatocytes (mRNA, qRT-PCR), CYP3A4; type: in vitro ADME; settings: at 10 μM, hepatocytes 72 h, mean ± SD
[15] = Rat dose proportionality study (oral); settings: male, Sprague-Dawley, plasma
[16] = Plasma pharmacokinetics in rats; settings: male, Sprague-Dawley, rat, po, 10 mg/kg
PIK3C2G = molecular target: T5, PIK3C2G (Homo sapiens, UniProt O75747); assay: KINOMEscan, PIK3C2G; type: binding; settings: 10 μM
T5 construct: purchased Ambit Biosciences (scanMAXX KINOMEscan)
T5 sequence (O75747 1-1486): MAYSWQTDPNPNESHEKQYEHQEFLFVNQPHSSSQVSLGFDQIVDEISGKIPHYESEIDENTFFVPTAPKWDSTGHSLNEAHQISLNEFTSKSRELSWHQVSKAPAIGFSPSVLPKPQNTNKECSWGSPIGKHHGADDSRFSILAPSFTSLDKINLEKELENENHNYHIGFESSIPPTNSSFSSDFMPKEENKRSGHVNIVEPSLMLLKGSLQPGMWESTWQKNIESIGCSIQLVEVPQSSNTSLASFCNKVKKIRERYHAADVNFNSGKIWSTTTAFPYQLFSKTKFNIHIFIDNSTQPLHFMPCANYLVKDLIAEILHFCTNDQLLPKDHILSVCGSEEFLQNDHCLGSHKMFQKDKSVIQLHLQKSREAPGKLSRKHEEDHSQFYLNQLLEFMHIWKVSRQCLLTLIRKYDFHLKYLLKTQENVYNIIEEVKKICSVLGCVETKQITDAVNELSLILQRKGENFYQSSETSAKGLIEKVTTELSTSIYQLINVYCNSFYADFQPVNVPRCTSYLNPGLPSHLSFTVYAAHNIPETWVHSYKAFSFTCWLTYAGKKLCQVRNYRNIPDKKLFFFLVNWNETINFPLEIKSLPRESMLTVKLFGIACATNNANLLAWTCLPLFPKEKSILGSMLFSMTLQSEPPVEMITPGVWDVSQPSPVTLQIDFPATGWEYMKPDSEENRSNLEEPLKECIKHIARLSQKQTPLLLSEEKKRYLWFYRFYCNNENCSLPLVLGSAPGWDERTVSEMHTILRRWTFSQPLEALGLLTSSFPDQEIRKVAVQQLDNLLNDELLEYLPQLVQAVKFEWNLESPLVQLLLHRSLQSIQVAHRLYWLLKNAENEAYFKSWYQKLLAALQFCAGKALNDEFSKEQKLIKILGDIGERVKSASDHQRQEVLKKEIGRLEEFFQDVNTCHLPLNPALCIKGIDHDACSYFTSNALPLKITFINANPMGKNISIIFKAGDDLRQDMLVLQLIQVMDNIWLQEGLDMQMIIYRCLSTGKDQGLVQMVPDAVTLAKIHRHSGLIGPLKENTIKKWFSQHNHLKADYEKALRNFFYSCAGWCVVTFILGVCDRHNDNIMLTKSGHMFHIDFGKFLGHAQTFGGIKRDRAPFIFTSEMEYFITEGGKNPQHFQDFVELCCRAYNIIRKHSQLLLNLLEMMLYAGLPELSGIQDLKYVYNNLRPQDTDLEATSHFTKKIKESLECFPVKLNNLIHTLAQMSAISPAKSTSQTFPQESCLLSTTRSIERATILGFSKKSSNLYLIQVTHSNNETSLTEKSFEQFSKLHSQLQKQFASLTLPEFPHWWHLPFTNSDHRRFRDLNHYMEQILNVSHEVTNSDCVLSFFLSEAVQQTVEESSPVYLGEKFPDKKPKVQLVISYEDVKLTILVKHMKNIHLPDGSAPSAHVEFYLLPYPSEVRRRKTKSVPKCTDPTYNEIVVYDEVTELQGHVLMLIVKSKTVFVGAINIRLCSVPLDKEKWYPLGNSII

CYP3A4 [17] = molecular target: T6, CYP3A4 (Homo sapiens, UniProt P08684); assay: Cytochrome P450 inhibition in human liver microsomes, CYP3A4; type: in vitro ADME; settings: read-out: CYP inhibition 3A4 IC50
T6 construct: was evaluated in human liver microsomes incubated with SN32976; tissue Cyprotex (contract research organization); host or cells: human liver microsomes

CYP2C9 = molecular target: T7, CYP2C9 (Homo sapiens, UniProt P11712); assay: Cytochrome P450 inhibition in human liver microsomes, CYP2C9; type: in vitro ADME; settings: mean ± SD, read-out: CYP inhibition 2C9 IC50
T7 construct: was evaluated in human liver microsomes incubated with SN32976; tissue Cyprotex (contract research organization); host or cells: human liver microsomes

PI3Kα [18] = test system: PI3Kα; parameters: method as in PMID 23726034, PMID 23275335; settings: cited from earlier work

Sequence of PI3Kγ (P48736 whole entry): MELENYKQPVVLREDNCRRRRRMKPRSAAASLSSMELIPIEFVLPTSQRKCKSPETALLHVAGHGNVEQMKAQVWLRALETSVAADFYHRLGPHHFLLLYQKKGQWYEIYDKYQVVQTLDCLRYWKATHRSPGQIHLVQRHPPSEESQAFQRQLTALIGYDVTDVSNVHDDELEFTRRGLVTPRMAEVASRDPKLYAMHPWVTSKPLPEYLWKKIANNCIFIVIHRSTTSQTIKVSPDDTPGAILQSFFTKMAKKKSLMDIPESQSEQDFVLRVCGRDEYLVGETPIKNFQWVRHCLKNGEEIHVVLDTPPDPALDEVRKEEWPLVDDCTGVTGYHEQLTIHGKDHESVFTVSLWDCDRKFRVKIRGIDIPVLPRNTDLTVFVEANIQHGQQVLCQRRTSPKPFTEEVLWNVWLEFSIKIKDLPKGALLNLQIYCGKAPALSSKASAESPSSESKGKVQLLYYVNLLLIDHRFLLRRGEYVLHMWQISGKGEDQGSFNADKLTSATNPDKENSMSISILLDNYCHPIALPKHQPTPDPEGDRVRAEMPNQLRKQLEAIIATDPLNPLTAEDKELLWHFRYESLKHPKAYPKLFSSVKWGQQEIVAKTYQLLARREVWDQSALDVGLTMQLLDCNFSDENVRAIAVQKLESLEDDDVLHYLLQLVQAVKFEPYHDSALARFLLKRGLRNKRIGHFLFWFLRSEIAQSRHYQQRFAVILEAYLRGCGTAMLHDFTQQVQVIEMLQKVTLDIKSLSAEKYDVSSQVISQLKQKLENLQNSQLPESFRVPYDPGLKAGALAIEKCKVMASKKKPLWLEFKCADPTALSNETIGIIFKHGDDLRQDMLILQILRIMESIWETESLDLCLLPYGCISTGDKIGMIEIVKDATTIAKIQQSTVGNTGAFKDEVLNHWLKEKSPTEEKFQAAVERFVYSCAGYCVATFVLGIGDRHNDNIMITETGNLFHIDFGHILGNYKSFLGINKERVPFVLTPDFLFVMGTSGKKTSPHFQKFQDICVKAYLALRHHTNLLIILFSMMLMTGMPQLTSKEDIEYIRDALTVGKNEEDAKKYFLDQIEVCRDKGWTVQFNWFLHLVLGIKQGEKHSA
Sequence of PI3Kα (Homo sapiens, UniProt P42336) (P42336 whole entry): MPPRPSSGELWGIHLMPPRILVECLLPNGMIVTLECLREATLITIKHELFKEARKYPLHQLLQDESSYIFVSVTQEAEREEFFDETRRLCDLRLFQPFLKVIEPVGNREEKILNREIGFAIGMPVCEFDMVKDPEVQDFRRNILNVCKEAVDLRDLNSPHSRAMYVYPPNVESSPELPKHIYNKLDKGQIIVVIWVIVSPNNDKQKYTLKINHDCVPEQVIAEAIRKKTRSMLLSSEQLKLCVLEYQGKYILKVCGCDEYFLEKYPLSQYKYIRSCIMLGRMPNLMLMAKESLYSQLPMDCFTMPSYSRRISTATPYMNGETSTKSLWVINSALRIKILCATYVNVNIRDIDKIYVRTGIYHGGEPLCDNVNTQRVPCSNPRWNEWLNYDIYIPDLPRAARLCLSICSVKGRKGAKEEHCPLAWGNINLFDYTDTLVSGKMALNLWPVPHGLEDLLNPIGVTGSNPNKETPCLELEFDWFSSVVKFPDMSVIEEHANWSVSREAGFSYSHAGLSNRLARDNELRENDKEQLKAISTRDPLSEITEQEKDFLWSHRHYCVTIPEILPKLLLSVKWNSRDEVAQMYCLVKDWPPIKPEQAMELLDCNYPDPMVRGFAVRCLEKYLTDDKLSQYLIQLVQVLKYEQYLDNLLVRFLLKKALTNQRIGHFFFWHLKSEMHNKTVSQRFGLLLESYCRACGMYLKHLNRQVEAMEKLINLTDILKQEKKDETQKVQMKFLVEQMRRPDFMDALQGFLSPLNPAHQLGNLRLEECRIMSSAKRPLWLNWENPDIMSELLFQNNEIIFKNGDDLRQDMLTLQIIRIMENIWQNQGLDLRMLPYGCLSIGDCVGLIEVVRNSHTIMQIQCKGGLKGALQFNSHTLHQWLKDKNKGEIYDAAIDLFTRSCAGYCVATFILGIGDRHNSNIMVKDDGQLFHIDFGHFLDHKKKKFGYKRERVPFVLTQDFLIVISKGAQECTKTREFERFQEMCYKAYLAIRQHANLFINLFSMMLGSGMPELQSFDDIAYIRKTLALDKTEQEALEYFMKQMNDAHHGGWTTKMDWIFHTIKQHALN
Sequence of PI3Kα (Homo sapiens, UniProt P42336) (P27986 whole entry partner): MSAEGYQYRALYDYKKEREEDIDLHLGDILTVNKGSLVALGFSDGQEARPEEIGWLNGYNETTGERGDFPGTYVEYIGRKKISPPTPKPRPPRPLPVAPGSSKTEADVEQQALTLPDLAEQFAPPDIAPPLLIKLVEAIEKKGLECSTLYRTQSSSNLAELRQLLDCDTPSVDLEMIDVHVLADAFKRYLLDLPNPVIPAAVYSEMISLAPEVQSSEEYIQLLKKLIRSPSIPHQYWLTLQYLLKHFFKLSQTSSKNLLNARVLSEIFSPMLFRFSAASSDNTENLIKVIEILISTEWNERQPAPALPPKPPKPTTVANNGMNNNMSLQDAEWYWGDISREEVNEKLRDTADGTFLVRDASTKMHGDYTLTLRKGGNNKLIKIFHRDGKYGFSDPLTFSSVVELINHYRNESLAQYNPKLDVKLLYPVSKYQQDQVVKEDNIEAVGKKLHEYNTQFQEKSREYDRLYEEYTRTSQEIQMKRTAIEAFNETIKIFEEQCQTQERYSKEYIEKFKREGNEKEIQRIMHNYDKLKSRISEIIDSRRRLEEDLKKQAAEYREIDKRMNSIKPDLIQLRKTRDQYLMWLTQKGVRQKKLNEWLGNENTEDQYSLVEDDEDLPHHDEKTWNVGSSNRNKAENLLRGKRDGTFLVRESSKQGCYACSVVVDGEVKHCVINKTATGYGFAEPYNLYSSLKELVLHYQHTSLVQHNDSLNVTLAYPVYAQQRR
Sequence of PI3Kβ (P42338 whole entry): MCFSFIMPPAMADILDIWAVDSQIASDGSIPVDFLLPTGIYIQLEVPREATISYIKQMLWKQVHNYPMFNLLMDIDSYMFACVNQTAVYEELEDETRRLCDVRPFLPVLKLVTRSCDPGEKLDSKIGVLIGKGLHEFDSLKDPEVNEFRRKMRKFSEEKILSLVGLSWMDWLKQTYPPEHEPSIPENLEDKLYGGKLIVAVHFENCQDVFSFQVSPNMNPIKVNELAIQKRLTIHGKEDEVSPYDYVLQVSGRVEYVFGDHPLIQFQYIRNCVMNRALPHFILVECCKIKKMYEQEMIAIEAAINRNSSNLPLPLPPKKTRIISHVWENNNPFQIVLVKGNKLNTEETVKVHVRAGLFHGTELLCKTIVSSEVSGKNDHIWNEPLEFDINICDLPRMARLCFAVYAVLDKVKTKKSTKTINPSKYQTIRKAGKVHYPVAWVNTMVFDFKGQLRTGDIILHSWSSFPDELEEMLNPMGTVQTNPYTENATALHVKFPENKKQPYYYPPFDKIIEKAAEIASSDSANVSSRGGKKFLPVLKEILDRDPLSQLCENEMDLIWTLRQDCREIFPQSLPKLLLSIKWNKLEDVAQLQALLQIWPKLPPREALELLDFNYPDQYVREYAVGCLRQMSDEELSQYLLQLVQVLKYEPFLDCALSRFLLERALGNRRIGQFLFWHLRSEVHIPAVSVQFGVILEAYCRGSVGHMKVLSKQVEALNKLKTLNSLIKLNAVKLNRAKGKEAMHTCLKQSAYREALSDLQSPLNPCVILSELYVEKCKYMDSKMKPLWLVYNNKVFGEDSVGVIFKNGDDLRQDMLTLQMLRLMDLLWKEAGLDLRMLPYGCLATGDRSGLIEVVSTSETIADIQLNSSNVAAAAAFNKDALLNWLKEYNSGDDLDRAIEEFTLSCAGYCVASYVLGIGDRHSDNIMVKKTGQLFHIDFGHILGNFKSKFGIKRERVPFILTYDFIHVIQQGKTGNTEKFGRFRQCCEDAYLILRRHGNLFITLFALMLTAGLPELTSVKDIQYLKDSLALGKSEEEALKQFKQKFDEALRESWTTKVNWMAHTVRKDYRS
Sequence of PI3Kβ (P27986 whole entry partner): as the sequence (P27986 whole entry partner) above
T2 sequence (P05177 whole entry): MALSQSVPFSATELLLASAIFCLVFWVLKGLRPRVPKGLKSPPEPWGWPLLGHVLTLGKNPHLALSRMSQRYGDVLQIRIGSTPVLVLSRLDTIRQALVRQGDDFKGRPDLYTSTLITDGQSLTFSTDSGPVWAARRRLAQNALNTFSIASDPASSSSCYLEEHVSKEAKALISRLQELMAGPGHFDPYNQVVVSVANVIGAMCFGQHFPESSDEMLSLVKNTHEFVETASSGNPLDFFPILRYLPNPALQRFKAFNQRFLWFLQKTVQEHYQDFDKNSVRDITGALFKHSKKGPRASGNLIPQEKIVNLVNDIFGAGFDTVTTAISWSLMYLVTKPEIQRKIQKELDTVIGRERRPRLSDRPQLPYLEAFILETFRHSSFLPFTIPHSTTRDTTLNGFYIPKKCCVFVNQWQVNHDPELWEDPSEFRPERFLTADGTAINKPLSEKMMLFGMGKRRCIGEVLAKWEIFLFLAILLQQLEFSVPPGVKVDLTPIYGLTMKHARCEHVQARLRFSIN
T4 sequence (P10635 whole entry): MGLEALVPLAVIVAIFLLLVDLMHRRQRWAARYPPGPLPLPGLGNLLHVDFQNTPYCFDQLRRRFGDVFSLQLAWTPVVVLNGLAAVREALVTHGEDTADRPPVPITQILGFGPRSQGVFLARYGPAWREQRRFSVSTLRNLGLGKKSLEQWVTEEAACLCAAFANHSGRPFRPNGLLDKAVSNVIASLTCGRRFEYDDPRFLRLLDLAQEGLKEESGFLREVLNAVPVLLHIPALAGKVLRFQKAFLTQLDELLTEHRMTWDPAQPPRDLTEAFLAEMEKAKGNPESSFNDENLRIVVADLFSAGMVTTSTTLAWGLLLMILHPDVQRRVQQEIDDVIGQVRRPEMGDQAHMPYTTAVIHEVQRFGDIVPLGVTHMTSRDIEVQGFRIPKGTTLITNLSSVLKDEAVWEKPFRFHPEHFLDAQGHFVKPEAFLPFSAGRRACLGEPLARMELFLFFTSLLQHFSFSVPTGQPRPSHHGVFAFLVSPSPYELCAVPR

## COc1cccc2c1nc(C(F)F)n2-c1nc(N2CCOCC2)nc(N2CCN(S(=O)(=O)CCN)CC2)n1 [M8]
PI3Kγ
  IC50: 68 ± 18.6 nM
[1]
  contribution to combined plasma AUC: 0.13%

## CNCCS(=O)(=O)N1CCN(c2nc(N3CCOCC3)nc(-n3c(C(F)F)nc4c(OC)cccc43)n2)CC1 [M9]
PI3Kγ
  IC50: 90.3 ± 17.1 nM
mTOR
  IC50: 244 ± 56 nM
[1]
  contribution to combined plasma AUC: 27.1%

## COc1cccc2c1nc(C(F)F)n2-c1nc(N2CCOCC2)nc(N2CCN(S(=O)(=O)CC[N+](C)(C)[O-])CC2)n1 [M10]
[2]
  metabolite quantity in liver microsomes (relative peak area class): minor (minor (1-10% relative peak areas))
[3]
  metabolite quantity in liver microsomes (relative peak area class): minor (minor (1-10% relative peak areas))
[4]
  metabolite quantity in liver microsomes (relative peak area class): major (major (>10% relative peak areas))
[5]
  metabolite quantity in liver microsomes (relative peak area class): major (major (>10% relative peak areas))
[6]
  metabolite quantity in liver microsomes (relative peak area class): trace (trace (<1% relative peak areas in the total ion chromatograph))

## C=CS(=O)(=O)N1CCN(c2nc(N3CCOCC3)nc(-n3c(C(F)F)nc4c(OC)cccc43)n2)CC1 [M17]
PI3Kα [7]; HTRF assay, ATP 10 μM, mean ± SEM
  IC50: 6.2 ± 0.5 nM
PI3Kα [7]; ratio of biochemical IC50
  selectivity for PI3Kα over all other PI3K isoforms and mTOR: 4.2 fold
PI3Kγ
  IC50: 26.3 ± 2.6 nM
[2]
  metabolite quantity in liver microsomes (relative peak area class): major (major (>10% relative peak areas))
[3]
  metabolite quantity in liver microsomes (relative peak area class): major (major (>10% relative peak areas))
[4]
  metabolite quantity in liver microsomes (relative peak area class): major (major (>10% relative peak areas))
mTOR
  IC50: 74.9 ± 25.1 nM
[5]
  metabolite quantity in liver microsomes (relative peak area class): major (major (>10% relative peak areas))
[8]
  metabolite AUC relative to parent in plasma: 8.8 % of parent
  metabolite AUC relative to parent in tumor: 2.4 % of parent
[1]
  contribution to combined plasma AUC: 1.0%
PI3Kβ
  IC50: > 1000 nM
  IC50 PI3Kβ: lacked activity
[6]
  metabolite quantity in liver microsomes (relative peak area class): major (major (>10% relative peak areas))
PI3Kδ
  IC50: 55 ± 24.1 nM

## COc1cccc2c1nc(C(F)F)n2-c1nc(N2CCOCC2)nc(N2CCN(S(=O)(=O)CCN(C)C)CC2)n1 [SN32976, 2-((4-(4-(2-(difluoromethyl)-4-methoxy-1H-benzo[d]imidazol-1-yl)-6-morpholino-1,3,5-triazin-2-yl)piperazin-1-yl)sulfonyl)-N, N-dimethylethan-1-amine]
CYP2B6
  CYP induction 2B6: 0.31 ± 0.01
CYP1A2 [9]
  CYP induction 1A2: 1.27 ± 0.01
PI3Kγ
  IC50: 110 ± 41 nM
PIK3C2B
  off-target activity against PIK3C2B: off-target activity
CYP1A2 [10]
  IC50: > 25000 nM
[11]; pH 2.0
  solubility: > 100000 µM
[11]; pH 7.4, mean ± SD
  solubility: 11.2 µM (≈ 6.51 µg/mL)
CYP2C19
  IC50: > 25000 nM
[12]
  AUC: 3.22 µM·h
  bioavailability: 35.9%
[13]
  AUC: 2.5 µM·h
  bioavailability: 33.4%
CYP2D6
  IC50: > 25000 nM
CYP3A4 [14]
  CYP induction 3A4: 1.39 ± 0.21
mTOR
  IC50: 194 ± 55 nM
[15]; 10 mg/kg
  AUC: 0.417 µM·h
  Cmax: 34.1 nM
  Tmax: 4 h
  half-life: 2.27 h
[15]; 30 mg/kg
  AUC: 1.07 µM·h
  Cmax: 125 nM
  Tmax: 1 h
  half-life: 4.62 h
[15]; 100 mg/kg
  AUC: 16.4 µM·h
  Cmax: 893 nM
  Tmax: 1 h
  half-life: 9.77 h
[15]; 300 mg/kg
  AUC: 139 µM·h
  Cmax: 6810 nM
  Tmax: 4 h
[16]
  AUC: 0.579 µM·h
  bioavailability: 8.1%
[1]
  contribution to combined plasma AUC: 71.8%
PIK3C2G
  off-target activity against PIK3C2G: off-target activity
CYP3A4 [17]
  IC50: > 25000 nM
CYP2C9
  IC50: 20000 nM

## Cc1nc(NC(=O)N2CCC[C@H]2C(N)=O)sc1-c1ccnc(C(C)(C)C(F)(F)F)c1 [alpelisib]
PI3Kα [18]
  selectivity for PI3Kα over other class I PI3K isoforms and mTOR: > 50 fold

## Nc1nc2cc(-c3ccc4ncc(C(=O)N5CCOCC5)n4c3)ccc2o1 [serabelisib]
PI3Kα [18]
  selectivity for PI3Kα over other class I PI3K isoforms and mTOR: > 50 fold
